Measured values from patent US10844102B2, “Peptides, compositions, and methods for stimulating subcutaneous adipogenesis” (The Regents of the University of California, priority 2014, dated 2020).
“Also recorded” adds a separate entry of the source. Like-named read-outs stand apart in the source and are kept apart here.

Columns and labels:
[1] = tested on: rat mesenchymal stem cells; assay: Assay 1: adipogenesis, Oil Red O staining (transdifferentiation of fibroblast lineages into adipocytes); type: cell-based; details: for adipogenic activity in Assay 1: Assay 1, Oil Red O, concentration not given; for adipogenesis quantified by Oil Red O staining, fold change relative to the negative control: three weeks
Procedure: Reagents: (1) 3-isobutyl-1-methylxanthine (IBMX) solution: 0.5M in DMSO; (2) Insulin Solution: 10 mg/mL recombinant human insulin; (3) Dexamethasone Solution in 10 mM in ethanol; (4) Oil Red O (0.36% in 60% isopropanol).
Adipogenesis Initiation Media: mesenchymal stem cell expansion media/0.5 mM IBMX/1 μM dexamethasone. Mesenchymal stem cell expansion media is commercially available from Millipore. The IBMX Solution was diluted 1:1000 and the Dexamethasone Solution was diluted 1:10,000 in expansion media containing antibiotics and antimycotics. The prepared media was stored at 4° C.
Adipogenesis Progression Media for positive control: mesenchymal stem cell expansion media/10 μg/mL insulin. The Insulin Solution was diluted 1:1000 in the expansion media and stored at 4° C.
Experimental Adipogenesis Progression Media: mesenchymal stem cell expansion media/1-100 μg/mL RHAMM antagonist peptides.
Adipogenesis Maintenance Media: mesenchymal stem cell expansion media containing antibiotics and antimycotics.
Negative Control Media: Dulbecco's Modified Eagle's Medium (DMEM)/10% normal calf serum.
Pre-adipocyte stem cells including bone marrow mesenchymal stem cells and fibroblasts were propagated using standard tissue culture methods. Cells were trypsinized to remove the cells from the substratum. The trypsin was neutralized and cells were counted using a hemocytometer. Cells were resuspended at 20,000 cells/mL in expansion media. 1 mL of cell suspension was plated per well of 48-well plate, with several wells left empty for blank well (blank control) staining.
Cells were incubated until they reached confluency. When cells were fully confluent, the expansion media was replaced with 0.5 mL of Adipogenesis Initiation Media. For negative controls (no insulin, no peptides), expansion media only was used at this step and for subsequent media changes. For all media changes, media was replaced as gently as possible to avoid disturbing the monolayer.
Cells were incubated in Adipogenesis Initiation Media for 72 hours at 37° C., 5% CO2. 0.5 mL media was then removed from each well, and replaced with 0.5 mL of either positive control or experimental Adipogenesis Progression Media per well. Cells were again incubated for 96 hours at 37° C., 5% CO2, after which time media was replaced every 48 hours with Adipogenesis Maintenance Media (0.5 mL of media was removed from each well and replaced with 0.5 mL Adipogenesis Maintenance Media per well). Media added to empty wells served as blank controls for blank well background staining. Cells were incubated in Adipogenesis Maintenance Medium for at least 96 hours at 37° C., 5% CO2 after which time media was replaced with Adipogenesis Maintenance Medium. Lipid droplets had appeared by the time Adipogenesis Maintenance Medium was initially added and continued to accumulate and increase in size for 7-14 days. Experiments were terminated between seven and fourteen days after the initial addition of Adipogenesis Maintenance Medium.
For quantification of Oil Red O staining, media was removed and cells were washed twice with PBS, using care to gently add the PBS. Cells were then fixed in 4% paraformaldehyde (0.5 mL/well) and incubated for 30 minutes. The fixation solution was then removed and wells were washed two times with 1 mL of phosphate buffered saline (PBS) and once with 1 mL Milli-Q water. 0.25 mL Oil Red O solution was added per well of 48-well plate, including to the wells lacking cells, but containing media. Cells were incubated for 15 minutes at room temperature. The staining solution was then removed and wells were washed two times with 1 mL of Milli-Q water and once with washing solution (63% isopropanol in water).
Adipogenesis was quantified using a spectrophotometer. 0.25 mL Dye Extraction Solution (isopropyl alcohol) was added per well, and the plate was set on an orbital shaker or platform rocker for 30 minutes. […]

adipogenesis [2] = assay: Adipogenic activity of peptides and peptide fragments, assay not specified; type: cell-based; details: assay not specified
Procedure: In the second approach, a series of truncations and alanine mutagenesis on peptide B were performed in order to identify the smallest active sequence. Fragments of peptide B were prepared and assayed for adipogenesis. First, fragments corresponding to the two halves of peptide B were prepared (KLKDENS (SEQ ID NO: 8) and SQLKSEVSK (SEQ ID NO: 13)).

dermis of aged rats = assay: Rat dermal skin model of adipogenesis (injection into the dermis of aged rats); type: in vivo; details: injected into the dermis of aged rats / rat skin
[3] = tested on: human primary cells directly isolated from human subcutaneous fat or dermal tissue; assay: Human primary cells isolated from subcutaneous fat or dermal tissue; type: cell-based
adipogenesis [4] = details: earlier reports, WO 2014/082042 and background; cited from earlier work

| Substance | adipogenic activity in Assay 1 [1] | adipogenesis quantified by Oil Red O staining, fold change relative to the negative control ([1]; Assay 1, peptide 5 μg/ml) | adipogenesis quantified by Oil Red O staining, fold change relative to the negative control ([1]; Assay 1, peptide 50 μg/ml) | adipogenic activity (adipogenesis [2]) | specific activity among the 9-mer, 7-mer and 6-mer fragments ([1]; Assay 1) | adipogenic effects in rat skin (dermis of aged rats) | adipogenic activity in human primary cells [3] | adipogenic activity (adipogenesis [4]) |
| --- | --- | --- | --- | --- | --- | --- | --- | --- |
| KLKDENSQLK (listed as Homo sapiens) | exhibited activity | significant increase in adipogenesis | significant increase in adipogenesis | has adipogenic activity; also recorded: are adipogenic | – | – | – | – |
| KLKDENSQLR (listed as Erinaceus europaeus) | promising results | – | – | – | – | – | – | – |
| KSEVSK (listed as Homo sapiens) [reference compound] | exhibit adipogenic activity | – | – | also found to be adipogenic | highest specific activity | induce large fat pads | exhibited adipogenic activity | strongly adipogenic |
| KTRAHHV (listed as Paenibacillus polymyxa) | ablated adipogenic activity | – | – | – | – | – | – | – |
